Target: T1, SoArsAB (Sporomusa ovata, UniProt F6MZ55+F6MZ56)
T1 sequence (F6MZ55 1-350): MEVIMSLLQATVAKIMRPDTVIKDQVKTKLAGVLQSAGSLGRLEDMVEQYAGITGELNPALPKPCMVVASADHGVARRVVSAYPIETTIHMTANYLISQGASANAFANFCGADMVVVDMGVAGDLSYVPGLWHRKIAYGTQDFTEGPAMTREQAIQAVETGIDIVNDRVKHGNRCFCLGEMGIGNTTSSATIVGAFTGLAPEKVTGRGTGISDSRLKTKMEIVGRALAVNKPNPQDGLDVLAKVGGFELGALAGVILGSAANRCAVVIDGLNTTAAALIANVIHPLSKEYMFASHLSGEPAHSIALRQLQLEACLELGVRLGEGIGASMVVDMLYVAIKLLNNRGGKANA
T1 sequence (F6MZ56 1-350): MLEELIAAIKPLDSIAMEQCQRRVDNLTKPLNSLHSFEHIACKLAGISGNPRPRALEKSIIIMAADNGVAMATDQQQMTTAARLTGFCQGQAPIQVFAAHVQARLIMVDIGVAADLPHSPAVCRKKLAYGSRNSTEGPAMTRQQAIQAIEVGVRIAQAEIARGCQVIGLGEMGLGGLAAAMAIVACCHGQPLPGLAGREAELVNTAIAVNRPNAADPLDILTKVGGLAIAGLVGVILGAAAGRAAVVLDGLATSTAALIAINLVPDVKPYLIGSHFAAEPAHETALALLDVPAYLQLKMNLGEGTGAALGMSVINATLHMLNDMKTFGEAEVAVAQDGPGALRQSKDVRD
Experiment: product
Type: biochemical
Settings: NaMN co-substrate; 6 h incubation

Cc1ccc(O)cc1 [P, p-cresol] was tested, and the “product (alpha-p-cresolyl-ribotide) by RP-HPLC and ESI-MS” value was “The product of SoArsAB when phenol, p-cresol, or DMB was used as substrate was purified”.

— PMC3182833 (Molecular microbiology, 2011)
